Test results from the supplement of paper PMC5579334.
± gives the standard deviation of the averaged measurements.

How the values were obtained:
STS26T [1] = assay: drug sensitivity score (DSS, CellTox-Green cytotoxicity, 72 h) (DSS (dimensionless)); higher = more cytotoxic; extreme values may be limits of the assay
In short: (§1)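 MPNST cell lines and primary human Schwann cells were grown for 72 h at 37 °C in 384-well plates containing five 10-fold compound dilutions. CellTox-Green, added before seeding at a final 1:1000 dilution, gave fluorescence from DNA released by disrupted cells, and signals were scaled to vehicle and positive-control wells. Curves were fitted with a four-parameter logistic model. Drug sensitivity score and relative IC50 come from these fits, with IC50 censored at the top concentration.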

HS-PSS [2] = assay: as above
In short: as §1

ST8814 [3] = assay: as above
In short: as §1

S1507-2 [4] = assay: as above
In short: as §1

[5] = tested on: HSC2 (primary human Schwann cells); assay: as above
In short: as §1

[6] = tested on: HSC1 (primary human Schwann cells); assay: as above
In short: as §1

YST-1 [7] = assay: drug sensitivity score (DSS, CellTiter-Glo viability, 72 h) (DSS (dimensionless)); higher = more sensitive; extreme values may be limits of the assay
In short: (§2)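 Viability of MPNST cell lines and primary human Schwann cells was read as CellTiter-Glo ATP luminescence after 72 h at 37 °C, 5% CO2, in 384-well plates seeded with 750–1000 cells per well. Each compound had been preprinted at five concentrations in 10-fold steps. Signals were scaled between vehicle and positive-control wells, duplicates averaged where present, and fitted with four-parameter logistic curves. Drug sensitivity score and relative IC50 (censored at the top concentration) come from those fits, and percent inhibition is taken at the top concentration.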

STS26T [8] = assay: as above
In short: as §2

HS-Sch-2 [9] = assay: as above
In short: as §2

HS-PSS [10] = assay: as above
In short: as §2

ST8814 [11] = assay: as above
In short: as §2

S462 [12] = assay: as above
In short: as §2

S1507-2 [13] = assay: as above
In short: as §2

[14] = tested on: HSC2 (primary human Schwann cells); assay: as above
In short: as §2

[15] = tested on: HSC1 (primary human Schwann cells); assay: as above
In short: as §2

YST-1 [16] = assay: % inhibition of CellTiter-Glo viability at highest tested concentration (72 h), relative to DMSO and benzethonium chloride controls; higher = more inhibition
In short: as §2

STS26T [17] = assay: as above
In short: as §2

HS-Sch-2 [18] = assay: as above
In short: as §2

HS-PSS [19] = assay: as above
In short: as §2

ST8814 [20] = assay: as above
In short: as §2

S462 [21] = assay: as above
In short: as §2

S1507-2 [22] = assay: as above
In short: as §2

[23] = tested on: HSC2 (primary human Schwann cells); assay: as above
In short: as §2

[24] = tested on: HSC1 (primary human Schwann cells); assay: as above
In short: as §2

Row | SMILES | drug sensitivity score (STS26T [1]) | drug sensitivity score (HS-PSS [2]) | drug sensitivity score (ST8814 [3]) | drug sensitivity score (S1507-2 [4]) | drug sensitivity score [5] | drug sensitivity score [6] | drug sensitivity score (YST-1 [7]) | drug sensitivity score (STS26T [8]) | drug sensitivity score (HS-Sch-2 [9]) | drug sensitivity score (HS-PSS [10]) | drug sensitivity score (ST8814 [11]) | drug sensitivity score (S462 [12]) | drug sensitivity score (S1507-2 [13]) | drug sensitivity score [14] | drug sensitivity score [15] | % inhibition (YST-1 [16]) | % inhibition (STS26T [17]) | % inhibition (HS-Sch-2 [18]) | % inhibition (HS-PSS [19]) | % inhibition (ST8814 [20]) | % inhibition (S462 [21]) | % inhibition (S1507-2 [22]) | % inhibition [23] | % inhibition [24]
1 | CNC(=O)c1ccc(N2C(=S)N(c3ccc(C#N)c(C(F)(F)F)c3)C(=O)C23CCC3)cc1F [RD162] (max concentration tested 10000 nM) | 0 | 0 | 0 | 2.37 ± 3.4 | 0 | 0 | 0 | 0 | 0 | 0 | 0 | 0 | 1.24 ± 1.8 | 0 | 0.0127 | 7.83% | 4.23% | 9.66% | -0.07% | 10% | -0.791 ± 7.8% | 10.7 ± 20% | 8.13% | 11.2%
2 | CC(C)(C)Cn1c(N)nc2ccc(-c3[nH]c(C(C)(C)C)nc3-c3ccc(F)cc3)nc21 [Ralimetinib] (max concentration tested 10000 nM) | 0 | 0 | 0 | 0 | 0 | 0 | 7.83 | 1.33 | 2.8 | 1.76 | 2.03 | 0.51 ± 0.72 | 2.27 ± 0.73 | 3.4 | 2.2 | 41.8% | 28.7% | 54.9% | 45.7% | 28.2% | 13.4 ± 7.5% | 33.8 ± 6.8% | 34% | 34.9%
3 | COc1cc2c(Oc3ccc4[nH]c(C)cc4c3F)ncnc2cc1OCCCN1CCCC1 [Cediranib] (max concentration tested 1000 nM) | 0 | 0 | 0.0254 | 0.112 ± 0.16 | 0.638 | 0 | 0 | 0 | 0 | 1.71 | 0 | 0 | 0.908 ± 0.43 | 0 | 0.0876 | -10.3% | 4.34% | 1.32% | 20.1% | 8.47% | -3.01 ± 12% | 19.9 ± 0.91% | -10.7% | 12.1%
4 | CCN1CCN(c2ccc(Nc3cc(N(C)C(=O)Nc4c(Cl)c(OC)cc(OC)c4Cl)ncn3)cc2)CC1 [NVP-BGJ398] (max concentration tested 1000 nM) | 0 | 0 | 0 | 0.143 ± 0.2 | 0 | 0 | 0 | 0 | 0 | 0 | 0.135 | 0 | 0.00445 ± 0.0063 | 0 | 0 | 2.47% | -2.71% | 0.34% | 9.97% | 14.3% | 0.872 ± 0.61% | 6.59 ± 6.9% | 5.81% | 4.11%
5 | C[C@@H]1CCN(C(=O)CC#N)C[C@@H]1N(C)c1ncnc2[nH]ccc12 [Tofacitinib] (max concentration tested 5000 nM) | 0 | 0 | 0 | 0.083 ± 0.12 | 0 | 0 | 0.89 | 0.0007 | 0.89 | 0 | 0 | 1.27 ± 0.56 | 0.398 ± 0.56 | 1.53 | 3.18 | -2.9% | 10.4% | -3.98% | -4.37% | 6.57% | 17.1 ± 3.5% | 0.251 ± 0.54% | 25.1% | 11.7%
6 | CN(c1ccccc1CNc1nc(Nc2ccc3c(c2)CC(=O)N3)ncc1C(F)(F)F)S(C)(=O)=O (max concentration tested 10000 nM) | 6.59 | 0.56 | 3.58 | 2.52 ± 0.6 | 1.33 | 1.33 | 10.6 | 9.12 | 6.95 | 5.97 | 7.26 | 11.5 ± 0.24 | 7.1 ± 0.82 | 13.8 | 14.5 | 100% | 95.3% | 101% | 83.9% | 71.9% | 100.3 ± 0.78% | 71.3 ± 1.1% | 84% | 78.8%
7 | CC(O)(CS(=O)(=O)c1ccc(F)cc1)C(=O)Nc1ccc(C#N)c(C(F)(F)F)c1 (stereo not drawn) [Bicalutamide] (max concentration tested 10000 nM) | 0 | 0 | 0 | 0 | 0 | 0 | 0 | 0.0466 | 0.01 | 0.45 | 0 | 0.149 ± 0.21 | 0 | 0 | 0.0562 | -3.03% | 12% | 12.8% | 14.1% | 7.2% | 7.3 ± 7.9% | 0.808 ± 0.64% | -3.88% | 11.9%
